CCCCCCCC[n+]1ccn(C)c1.F[P-](F)(F)(F)(F)F [1-octyl-3-methylimidazolium hexafluorophosphate]
Conditions	surface tension liquid-gas [mN/m]
283.91 K	34.75
283.92 K	34.62
287.88 K	34.48
293.41 K	34.14
293.42 K	34.36
298.13 K	33.95
302.95 K	33.56
303 K	33.48
308.1 K	33.27
308.14 K	33.32
313.47 K	32.98
313.51 K	33.16
318.02 K	32.9
318.04 K	32.8
322.73 K	32.52
322.79 K	32.46
327.97 K	32.12
327.98 K	32.25
332.98 K	32.02
333.05 K	31.93
337.93 K	31.81
337.95 K	31.68
342.84 K	31.46
343 K	31.53
348.12 K	31.26
348.18 K	31.15
353.56 K	30.94
353.62 K	30.83

CCCCn1cc[n+](C)c1.F[P-](F)(F)(F)(F)F [1-butyl-3-methylimidazolium hexafluorophosphate]
Conditions	surface tension liquid-gas [mN/m]
287.6 K	44.41
288.14 K	44.47
292.88 K	44.11
292.99 K	44.28
297.86 K	44.03
298.34 K	43.82
303.33 K	43.64
303.37 K	43.51
307.96 K	43.24
308.21 K	43.46
312.44 K	43.13
312.88 K	42.9
317.86 K	42.58
318.23 K	42.75
322.81 K	42.21
322.98 K	42.45
327.89 K	42.14
327.91 K	41.94
332.84 K	41.86
333.31 K	41.63
337.59 K	41.57
337.97 K	41.37
342.86 K	41.05
343.06 K	41.34
348.16 K	40.95
348.34 K	40.8
352.78 K	40.47
352.99 K	40.75

CCCCCCn1cc[n+](C)c1.F[P-](F)(F)(F)(F)F [1-hexyl-3-methylimidazolium hexafluorophosphate]
Conditions	surface tension liquid-gas [mN/m]
284.3 K	39.12
284.36 K	39.1
288.16 K	38.86
288.25 K	38.81
293.48 K	38.6
293.56 K	38.7
298.97 K	38.25
299.02 K	38.21
303.58 K	37.99
303.67 K	37.89
308.56 K	37.61
308.58 K	37.78
313.45 K	37.26
313.53 K	37.3
318.45 K	36.88
318.5 K	36.94
323.12 K	36.67
323.16 K	36.78
327.89 K	36.28
327.92 K	36.29
333.78 K	36.05
333.82 K	35.99
337.92 K	35.68
337.94 K	35.74
343.05 K	35.48
343.09 K	35.29
347.67 K	35.21
347.75 K	35.09
353.68 K	34.7
353.76 K	34.87

CCCn1cc[n+](C)c1.F[P-](F)(F)(F)(F)F [1-methyl-3-propylimidazolium hexafluorophosphate]
Conditions	surface tension liquid-gas [mN/m]
318.33 K	46.41
318.39 K	46.75
323.12 K	46.09
323.13 K	46.33
328.13 K	45.76
328.14 K	45.93
332.59 K	45.52
332.63 K	45.2
333.28 K	45.82
338.14 K	45.65
338.21 K	45.14
343.25 K	44.83
343.26 K	44.86
348.02 K	44.66
348.08 K	44.54
352 K	44.38
352.08 K	44.31

From the NIST ThermoML archive (doi:10.1021/je800895q)
